Measurements reported in patent US12655139B2, “Isoxazolidines as RIPK1 inhibitors and use thereof” (SANOFI, priority 2020, dated 2026).
Counter-ions that a name gives are not always drawn. Like-named read-outs stand apart in the source and are kept apart here.

Experiments:
[1] = molecular target: T1, hRIPK1 (aa 1-375) fusion protein (Homo sapiens, UniProt Q13546); assay: ADP-Glo kinase assay, RIPK1 autophosphorylation; assay type: biochemical
T1 construct: hRIPK1 (aa 1-375) fusion protein
T1 sequence (Q13546 1-375): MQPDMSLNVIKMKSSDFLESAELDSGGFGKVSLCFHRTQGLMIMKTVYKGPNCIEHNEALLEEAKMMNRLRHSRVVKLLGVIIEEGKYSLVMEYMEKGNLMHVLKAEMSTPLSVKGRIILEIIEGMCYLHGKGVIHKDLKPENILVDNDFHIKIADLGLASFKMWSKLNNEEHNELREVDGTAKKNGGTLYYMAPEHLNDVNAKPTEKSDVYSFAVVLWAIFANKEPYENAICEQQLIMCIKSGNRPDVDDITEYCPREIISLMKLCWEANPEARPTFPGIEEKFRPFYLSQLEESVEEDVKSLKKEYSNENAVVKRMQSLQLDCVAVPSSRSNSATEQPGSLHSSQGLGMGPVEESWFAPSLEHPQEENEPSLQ
Description: Evaluation of Receptor-Interacting Protein Kinase 1 Inhibition.
The catalytic activity of RIPK1 was measured by monitoring the conversion of Adenosine triphosphate (ATP) to Adenosine diphosphate (ADP) due to autophosphorylation using an ADP-Glo kinase kit (Promega, catalog no. V9104).
After another 240 minutes incubation at room temperature, 5 μl Promega ADP-Glo reagent I were added to quench the reaction and deplete unconsumed ATP. After an incubation period of 30 minutes, 10 μl Promega ADP-Glo detection reagent II were added resulting in conversion of ADP to ATP, which generates a light-reaction between luciferase and luciferin. Luminescence was quantified after 30 minutes with a Pherastar FS (BMG LABTECH, Ortenberg).
The adjustment was obtained by nonlinear regression using the Levenberg Marquardt algorithm.

U937 cells = assay: Cellular assay in U937 cells on cell death (necroptosis), TNFα/zVAD.fmk; assay type: cell-based
Excerpt: Cellular Assay in U937 Cells to Measure the Activity of RIPK1-Inhibitors on Cell Death (Necroptosis).
Cell death was quantified in 96 well plates by determination of the amount of live cell using a CellTiter 96 AQueous reagent (Promega), a calorimetric method to measure the amount of live cells by reducing tetrazolium compound [3-(4,5-dimethylthiazol-2-yl)-5-(3-carboxymethoxyphenyl)-2-(4-sulfophenyl)-2H-tetrazolium, inner salt; MTS] into formazan. Absorbance of formazan was read at 490 nm. The inhibitory activity of the test compound was quantified in a concentration response curve (CRC) experiment. Compounds were obtained as 10 mM stock solutions and were diluted 1 to 10 volumes with DMSO to yield a 1 mM solution. From this solution 2 μl were diluted with 998 μl growth medium. 100 μl of 2 μM compound solution was further diluted sequentially with a dilution factor of 2.5 by adding 150 μl growth medium. A total of 10 concentrations were tested ranging from 10 μM to 0.26 nM or from 1 μM to 0.07 nM.
U937 cells were cultured in RPMI1640 Glutamax and 10% heat inactivated FBS. 50 μl cell suspension containing 1×10^6 cells/ml supplemented with 50 μM zVAD.fmk (Benzyloxycarbonyl-Val-Ala-Asp (OMe) fluoromethylketone) and 100 ng/ml recombinant human TNFα were dispensed in each well of a 96-well plate. 50 μl of compound dilutions (see above) were added and the cell suspension incubated overnight (18 to 24 hours) at 37° C., 5% CO2 in a humidified atmosphere (95% rH). High (no compound) and low control (no TNFα, zVAD.fmk) were tested with 7 replicates; all compound concentrations were tested in duplicates on each experimental plate.
CellTiter 96 Aqueous reagent was mixed (100 μl PMS (phenazine methosulfate) solution/2 ml MTS (3-(4,5-[…])-5-(3-carboxymethoxyphenyl)-2-(4-sulfophenyl)-2H-tetrazolium, inner salt) solution) and 20 μl were added per well. After 4 hours incubation at 37° C. (5% CO2 95% rH) optical density was measured at 490 nm on a microplate reader (Tecan Infinite M1000).
The % inhibition is expressed as percentage of the maximal inhibition value obtained in the absence of TNFα/zVAD.fmc.

[2] = Homo sapiens, U-937, Table 2, read-out: U937 IC50
[3] = Homo sapiens, U-937, Key compound table 4, read-out: U937 IC50 (uM) Mean

| IC50 ([1]; Table 1) [µM] | IC50 ([1]; Key compound table 4) [µM] | SMILES | IC50 (U937 cells; Table 2, listed as 10, read-out: U937 IC50) [µM] | IC50 (U937 cells; [2]) [µM] | IC50 (U937 cells; [3]) [µM] |
| --- | --- | --- | --- | --- | --- |
| 0.012 | – | COC(=O)c1ccnc(N2CCC(C(=O)N3OCC[C@H]3c3cncc(C#N)c3)CC2)n1 [Ex. 010, Methyl 2-[4-[(3S)-3-(5-cyano-3-pyridyl)isoxazolidine-2-carbonyl]-1-piperidyl]pyrimidine-4-carboxylate] | 0.21 | – | – |
| 0.0245 | – | N#Cc1cncc([C@@H]2CCON2C(=O)C2CCN(c3nccc(C#N)n3)CC2)c1 [Ex. 011] | – | 0.0126 | – |
| 0.0235 | – | CC1(C(=O)N2OCC[C@H]2c2cncc(C#N)c2)CCN(c2nccc(C(N)=O)n2)CC1 [Ex. 019] | – | 0.0573 | – |
| 0.0107 | – | COC(=O)c1ccnc(N2CCC(C)(C(=O)N3OCC[C@H]3c3cncc(C#N)c3)CC2)n1 [Ex. 020, Methyl 2-[4-[(3S)-3-(5-cyano-3-pyridyl)isoxazolidine-2-carbonyl]-4-methyl-1-piperidyl]pyrimidine-4-carboxylate] | – | 0.118 | – |
| 0.0704 | – | CC1(C(=O)N2OCC[C@H]2c2cncc(C#N)c2)CCN(c2nccc(C(=O)O)n2)CC1 [Ex. 021] | – | > 10 | – |
| 0.0627 | – | N#Cc1cncc([C@@H]2CCON2C(=O)C2CCN(c3cc(C(N)=O)ccn3)CC2)c1 [Ex. 026] | – | 1.9 | – |
| 0.0173 | – | N#CCOc1nc(N2CCC(C(=O)N3OCC[C@H]3c3cncc(C#N)c3)CC2)ncc1F [Ex. 028] | – | 0.00105 | – |
| 0.511 | – | N#Cc1cncc([C@@H]2CCON2C(=O)C2CCN(c3ncc(F)c(OCC(=O)O)n3)CC2)c1 [Ex. 033, 2-[2-[4-[(3S)-3-(5-Cyano-3-pyridyl)isoxazolidine-2-carbonyl]-1-piperidyl]-5-fluoro-pyrimidin-4-yl]oxyacetic acid TFA salt] | – | > 10 | – |
| 0.0661 | – | N#Cc1cncc([C@@H]2CCON2C(=O)C2CCN(c3ncc(F)c(OCC(N)=O)n3)CC2)c1 [Ex. 035] | – | 0.183 | – |
| 0.0501 | – | N#Cc1cncc([C@@H]2CCON2C(=O)C2CCN(c3ncc(F)c(N)n3)CC2)c1 [Ex. 039] | – | 0.18 | – |
| – | 0.009 | Cc1cncc([C@@H]2CCON2C(=O)C2CCN(c3nccc(C(N)=O)n3)CC2)n1 [Ex. 044] | – | – | 0.009 |
| 0.0172 | – | Cc1cncc([C@@H]2CCON2C(=O)C2CCN(c3nccc(C#N)n3)CC2)n1 [Ex. 045] | – | 0.0664 | – |
| 0.0117 | – | Cc1cnc(N2CCC(C(=O)N3OCC[C@H]3c3cncc(C#N)c3)CC2)nc1C(N)=O [Ex. 053] | – | 0.0561 | – |
| 0.101 | – | NC(=O)c1ccnc(N2CCC(C(=O)N3OCC[C@H]3c3cncc(N4CCC4=O)c3)CC2)n1 [Ex. 055] | – | 0.844 | – |
| 0.0425 | – | N#Cc1ccnc(N2CCC(C(=O)N3OCC[C@H]3c3cncc(N4CCC4=O)c3)CC2)n1 [Ex. 056, 2-[4-[(3S)-3-[5-(2-Oxoazetidin-1-yl)-3-pyridyl]isoxazolidine-2-carbonyl]-1-piperidyl]pyrimidine-4-carbonitrile] | – | 2.2 | – |
| 0.0309 | – | CCOC(=O)c1ncnc(N2CCC(C(=O)N3OCC[C@H]3c3cncc(C#N)c3)CC2)c1F [Ex. 057, Ethyl 6-[4-[(3S)-3-(5-cyano-3-pyridyl)isoxazolidine-2-carbonyl]-1-piperidyl]-5-fluoro-pyrimidine-4-carboxylate] | – | 0.11 | – |
| 0.0208 | – | N#Cc1cncc([C@@H]2CCON2C(=O)C2(F)CCN(c3ncc(F)c(C(N)=O)n3)CC2)c1 [Ex. 059] | – | 0.0507 | – |
| 0.0391 | – | CC1(C(=O)N2OCC[C@H]2c2cncnc2)CCN(c2nccc(C(N)=O)n2)CC1 [Ex. 061] | – | 0.256 | – |
| 0.0204 | – | COc1nc(N2CCC(C(=O)N3OCC[C@H]3c3cncnc3)CC2)ncc1F [Ex. 064] | – | 0.0642 | – |
| 0.0656 | – | N#Cc1ccnc(N2CCC(C(=O)N3OCC[C@H]3c3cncnc3)CC2)c1 [Ex. 065] | – | 0.612 | – |
| 0.0351 | – | N#Cc1cncc([C@@H]2CCON2C(=O)C2CCN(c3cnc(C#N)cn3)CC2)c1 [Ex. 066] | – | 0.205 | – |

| IC50 ([1]; Table 1) [µM] | IC50 ([1]; Key compound table 4) [µM] | SMILES | IC50 (U937 cells; Table 2, listed as 10, read-out: U937 IC50) [µM] | IC50 (U937 cells; [2]) [µM] | IC50 (U937 cells; [3]) [µM] |
| --- | --- | --- | --- | --- | --- |
| 0.0848 | – | N#Cc1cncc([C@@H]2CCON2C(=O)C2CCN(c3cncc(C#N)n3)CC2)c1 [Ex. 067] | – | 0.553 | – |
| – | 0.011 | N#Cc1cncc([C@@H]2CCON2C(=O)C2CCN(c3ncc(F)c(C(N)=O)n3)CC2)c1 [Ex. 068] | – | – | 0.003 |
| 0.0256 | – | N#Cc1cncc([C@@H]2CCON2C(=O)C2CCN(c3cncc(C(N)=O)n3)CC2)c1 [Ex. 71] | – | 0.964 | – |
| 0.025 | – | N#Cc1cncc([C@@H]2CCON2C(=O)C2CCN(c3cnc(C(N)=O)cn3)CC2)c1 [Ex. 072] | – | 0.554 | – |
| 0.011 | – | N#Cc1cncc([C@@H]2CCON2C(=O)C2CCN(c3ncnc(C(N)=O)c3F)CC2)c1 [Ex. 073] | – | 0.103 | – |
| – | 0.008 | NC(=O)c1nc(N2CCC(C(=O)N3OCC[C@H]3c3cnccn3)CC2)ncc1F [Ex. 075] | – | – | 0.003 |
| 0.0103 | – | NC(=O)c1nc(N2CCC(C(=O)N3OCC[C@H]3c3cncc(F)c3)CC2)ncc1F [Ex. 080] | – | 0.00337 | – |
| 0.0157 | – | Cc1ncc([C@@H]2CCON2C(=O)C2CCN(c3nccc(C(N)=O)n3)CC2)cc1C#N [Ex. 081] | – | 0.0297 | – |
| 0.0161 | – | NC(=O)c1ccnc(N2CCC(C(=O)N3OCC[C@H]3c3ccc(Cl)cn3)CC2)n1 [Ex. 083] | – | 0.0495 | – |
| 0.0153 | – | Cc1ncc([C@@H]2CCON2C(=O)C2CCN(c3ncc(F)c(C(N)=O)n3)CC2)cc1C#N [Ex. 085] | – | 0.0206 | – |
| 0.00955 | – | Cc1cnc([C@@H]2CCON2C(=O)C2CCN(c3nccc(C(N)=O)n3)CC2)cn1 [Ex. 087] | – | 0.0505 | – |
| 0.0336 | – | CCOC(=O)N1CC(NC(=O)c2ccnc(N3CCC(C(=O)N4OCC[C@H]4c4cncc(C#N)c4)CC3)n2)C1 [Ex. 088] | – | 0.158 | – |
| 0.00416 | – | N#Cc1cncc([C@@H]2CCON2C(=O)[C@H]2CCN(c3nccc(C(N)=O)n3)C[C@@H]2F)c1 [Ex. 093] | – | 0.0193 | – |
| 0.024 | – | Cc1cncc([C@@H]2CCON2C(=O)C2CCN(c3ncc(C)c(C(N)=O)n3)CC2)n1 [Ex. 097] | – | 0.0415 | – |
| 0.0137 | – | Cc1cnc(N2CCC(C(=O)N3OCC[C@H]3c3cncc(F)c3)CC2)nc1C(N)=O [Ex. 098] | – | 0.0325 | – |
| 0.0223 | – | Cc1cnc(N2CCC(C(=O)N3OCC[C@H]3c3cnccn3)CC2)nc1C(N)=O [Ex. 99] | – | 0.054 | – |
| 0.0175 | – | CSc1nc(N2CCC(C(=O)N3OCC[C@H]3c3cncc(C#N)c3)CC2)ncc1F [Ex. 103, 5-[(3S)-2-[1-(5-Fluoro-4-methylsulfanyl-pyrimidin-2-yl)piperidine-4-carbonyl]isoxazolidin-3-yl]pyridine-3-carbonitrile] | – | 0.00144 | – |
| 0.0134 | – | C[S+]([O-])c1nc(N2CCC(C(=O)N3OCC[C@H]3c3cncc(C#N)c3)CC2)ncc1F (stereo partly drawn) [Ex. 104] | – | 0.736 | – |
| 0.0112 | – | CS(=O)(=O)c1nc(N2CCC(C(=O)N3OCC[C@H]3c3cncc(C#N)c3)CC2)ncc1F [Ex. 105] | – | 7.94 | – |
| 0.0429 | – | N#Cc1ccc([C@@H]2CCON2C(=O)C2CCN(c3ncc(F)c(C(N)=O)n3)CC2)nc1 [Ex. 106] | – | 0.548 | – |
| 0.364 | – | N#Cc1ccc([C@@H]2CCON2C(=O)C2CCN(c3cc(C(N)=O)ncn3)CC2)nc1 [Ex. 107] | – | 7.52 | – |
